Assay: Spectral absorption of light of sensitizer solutions (FIG. 2A, 2B)
Type: physicochemical
Excerpt: FIG. 2A is a graphic representation of spectral absorption of light for two embodiments of the sensitizer solution plotting absorbance versus wavelength in nm.
FIG. 2B is a graphic representation of the spectral absorption of light for four embodiments of the sensitizer solution plotting absorbance versus wavelength in nm.
FIGS. 2A and 2B illustrate that the sensitizer solution 12 has an electromagnetic energy absorption level dependent on the frequency (i.e., wavelength) of the electromagnetic energy. […] See U.S. Pat. No. 6,561,808 by Neuberger.

| Compound | absorption spectrum primary peak | absorption spectrum secondary peak | absorption spectrum tertiary peak |
| --- | --- | --- | --- |
| C=Cc1c(C)c2cc3nc(c(CC(=O)O)c4[nH]c(cc5nc(cc1[nH]2)C(C)=C5CC)c(C)c4C(=O)O)[C@@H](CCC(=O)O)[C@@H]3C [chlorin e6] | about 665 nm | about 575 nm | about 515 nm |
| bacteriochlorin a | about 765 nm | about 605 nm |  |
| silicon naphthalocyanine | about 773 nm | about 690 nm | about 735 nm |
